This note sets out measurements from patent publication US20260125375A1 (Pfizer Inc., priority 2022, published 2026).

Read-outs that look alike come from different tables or passages of the source.

One assay addresses T1, C-CBL (46-435) (Homo sapiens, UniProt P22681).
T1 construct: N-terminal biotinylated WT CBL-B (36-427) and C-CBL (46-435) were captured on a streptavidin (SA) coated sensor chip
T1 sequence (P22681 46-435): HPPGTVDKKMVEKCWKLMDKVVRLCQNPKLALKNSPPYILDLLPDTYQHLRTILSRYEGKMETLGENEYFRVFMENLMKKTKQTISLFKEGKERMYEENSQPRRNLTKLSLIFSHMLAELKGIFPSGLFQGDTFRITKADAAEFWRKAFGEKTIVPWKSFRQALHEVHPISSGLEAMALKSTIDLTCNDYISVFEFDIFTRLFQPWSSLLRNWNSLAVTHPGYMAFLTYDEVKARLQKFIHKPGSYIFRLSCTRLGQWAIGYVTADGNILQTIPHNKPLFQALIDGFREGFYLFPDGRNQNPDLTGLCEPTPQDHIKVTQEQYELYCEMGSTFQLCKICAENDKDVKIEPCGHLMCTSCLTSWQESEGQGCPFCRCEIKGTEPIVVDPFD
Nature of the assay: Surface Plasmon Resonance (SPR) assay, binding affinity and kinetics, C-CBL. Particulars: SPR at 10° C., biotinylated C-CBL (46-435) on streptavidin chip; geometric mean; read-out: C-CBL SPR Kd (nM) GMean. Summed up: (§1)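 Biotinylated WT CBL-B (36-427) or C-CBL (46-435) captured on streptavidin chip (~5000–6000 RU); binding at 10° C in HEPES buffer pH 7.2 with 2% DMSO. Multi-cycle: 2-fold, 10-point series from 10 or 100 μM, 90 s association. Single-cycle: 3-fold, 6-point, 0.001–1 μM, 120 s association, >5400 s dissociation.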

For the next assay, the target named is T2, C-CBL (Homo sapiens, UniProt P22681).
T2 construct: endogenous in cells; host or cells: Jurkat HiBit-IL2 reporter cells, CBL-B knocked out by CRISPR
Nature of the assay: Jurkat HiBit-IL2 assay (CBL-B KO), reporter cell line expressing C-CBL only. Type of assay: cell-based. The settings on record: geometric mean, read-out: CBL-B KO EC50 (nM) GMean. Summed up: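 CRISPR knockout Jurkat HiBit-IL2 reporter cells (20,000/well) were preincubated 1 h with compounds (0.1% DMSO), then stimulated 4 h at 37 °C with anti-CD3 (1 μg/ml) and anti-CD28 (2 μg/ml) final. IL-2 was read by HiBiT lytic luminescence, normalized as fold over antibody-only baseline; EC50 reported as geometric mean.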
On the technique in general: HiBiT is a short tag that completes a luciferase, so light tracks the accessible tagged protein.

The next assay concerns the target T3, WT CBL-B (36-427) (Homo sapiens, UniProt Q13191).
T3 construct: N-terminal biotinylated WT CBL-B (36-427) and C-CBL (46-435) were captured on a streptavidin (SA) coated sensor chip
Nature of the assay: Surface Plasmon Resonance (SPR) assay, binding affinity and kinetics, CBL-B. The settings on record: SPR at 10° C., biotinylated WT CBL-B (36-427) on streptavidin chip; geometric mean; read-out: CBL-B SPR Kd (nM) GMean. Summed up:
as §1

[1] abbreviates: CBL-B KO (C-CBL only), anti-CD3/anti-CD28 stimulation 4 hours, Table 16a.
The mark [2] stands for this setting: CBL-B KO (expressing C-CBL only), Table 16b (further repetition).

T3 sequence (Q13191 36-427): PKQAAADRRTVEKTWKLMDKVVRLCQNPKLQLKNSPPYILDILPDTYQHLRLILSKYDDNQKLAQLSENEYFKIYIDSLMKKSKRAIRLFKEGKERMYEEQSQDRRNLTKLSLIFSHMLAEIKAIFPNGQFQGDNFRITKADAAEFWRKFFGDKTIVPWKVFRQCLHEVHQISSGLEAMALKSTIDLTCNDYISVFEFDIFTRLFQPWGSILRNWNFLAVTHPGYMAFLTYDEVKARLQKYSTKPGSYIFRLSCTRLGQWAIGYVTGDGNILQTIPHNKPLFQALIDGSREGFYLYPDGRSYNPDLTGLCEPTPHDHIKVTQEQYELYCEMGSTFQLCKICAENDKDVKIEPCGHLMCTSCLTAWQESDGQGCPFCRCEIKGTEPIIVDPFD

As usually defined, the Kd is the free concentration of one partner at which half of the binding sites on the other are occupied at equilibrium, for simple one-to-one binding. The term EC50 denotes the concentration giving half of the maximal effect. In the case of `CC(c1nc(C(F)(F)F)cc2c(-c3cccc(C4(Cc5nncn5C)COC4)c3)n[nH]c12)N1CCC[C@H](C)C1` (single isomer, unassigned) [Example C19], the Kd was found to be 51.3 nM on C-CBL (46-435) and 2.4 nM on WT CBL-B (36-427). The EC50 at C-CBL (setting [1]) was found to be 439 nM.

Consider `C[C@@H](c1nc(C(F)(F)F)cc2c(-c3cccc(C4(Cc5nncn5C)COC4)c3)n[nH]c12)N1CCC(F)(F)C1` (single isomer, unassigned) [Example D5], for which the Kd at C-CBL (46-435) was determined as 209 nM; on WT CBL-B (36-427), 21.9 nM. For the same compound, the EC50 on C-CBL (setting [1]) came to 1380 nM.

For the compound `C[C@H](c1nc(C(F)(F)F)cc2c(-c3cccc(C4(Cc5nncn5C)COC4)c3)n[nH]c12)N1C[C@H](F)[C@@H](F)C1` (single isomer, unassigned) [Example D8], the Kd amounted to 177 nM on C-CBL (46-435) and 15.8 nM at WT CBL-B (36-427). The EC50 on C-CBL (setting [1]) was 1210 nM.

For `C[C@H](NC1CC[C@H]1O)c1nc(C(F)(F)F)cc2c(-c3cccc([C@H](c4nncn4C)C4CCC4)c3)n[nH]c12` (single isomer, unassigned) [Example D30], the Kd at C-CBL (46-435) was 5.6 nM; at WT CBL-B (36-427), 1.1 nM. For the same compound, the EC50 on C-CBL (setting [1]) worked out at 43 nM; on C-CBL (setting [2]), 52 nM.

With `C[C@H](NC1CCC1)c1nc(C(F)(F)F)cc2c(-c3cccc(C4(Cc5nncn5C)COC4)c3)n[nH]c12` [Example F1, N-{(1S)-1-[3-(3-{3-[(4-methyl-4H-1,2,4-triazol-3-yl)methyl]oxetan-3-yl}phenyl)-5-(trifluoromethyl)-1H-pyrazolo[3,4-c]pyridin-7-yl]ethyl}cyclobutanamine], the Kd on C-CBL (46-435) stood at 11.2 nM; on WT CBL-B (36-427), 0.7 nM. Moreover, the EC50 at C-CBL (setting [1]) amounted to 60 nM; on C-CBL (setting [2]) it was 56 nM.

As for `C[C@@H](N[C@H]1C[C@@H](F)C1)c1nc(C(F)(F)F)cc2c(-c3cccc([C@H](c4nncn4C)C4CCC4)c3)n[nH]c12` (single isomer, unassigned) [Example C96], the Kd on C-CBL (46-435) was 91.2 nM; on WT CBL-B (36-427), 3.3 nM. The EC50 on C-CBL (setting [2]) was determined as 574 nM.

For the compound `C[C@H](c1nc(C(F)(F)F)cc2c(-c3cccc(C4(Cc5nncn5C)COC4)c3)n[nH]c12)N1C[C@@H](F)[C@H](F)C1` (single isomer, unassigned) [Example C26], the Kd at C-CBL (46-435) is 183 nM; at WT CBL-B (36-427) it was 13.2 nM. For the same compound, at C-CBL (setting [1]), the EC50 was determined as 1850 nM.

For the compound `C[C@H](N[C@@H]1CCOC1)c1nc(C(F)(F)F)cc2c(-c3cccc([C@H](c4nncn4C)C4CCC4)c3)n[nH]c12` (single isomer, unassigned) [Example D2], the Kd on C-CBL (46-435) came to 108 nM; on WT CBL-B (36-427), 3.8 nM. The EC50 on C-CBL (setting [1]) amounted to 465 nM; on C-CBL (setting [2]) it was 425 nM.

`C[C@@H](N[C@H]1C[C@@H](O)C1)c1nc(C(F)(F)F)cc2c(-c3cccc([C@H](c4nncn4C)C4CCC4)c3)n[nH]c12` (single isomer, unassigned) [Example C37]: the results for the Kd at C-CBL (46-435) and at WT CBL-B (36-427) were 75.5 nM and 3.3 nM, respectively. For the same compound, the EC50 at C-CBL (setting [1]) worked out at 1040 nM.

In the case of `C[C@H](N[C@H]1CCC[C@@H]1O)c1nc(C(F)(F)F)cc2c(-c3cccc([C@H](c4nncn4C)C4CCC4)c3)n[nH]c12` (single isomer, unassigned) [Example C47], the Kd stood at 7.2 nM at C-CBL (46-435) and 1.6 nM at WT CBL-B (36-427). Further, the figures for the EC50 at C-CBL (setting [1]) and on C-CBL (setting [2]) were 105 nM and 76 nM, respectively.

As to `CC(c1nc(C(F)(F)F)cc2c(-c3cccc(C4(Cc5nncn5C)COC4)c3)n[nH]c12)N1CCOCC1` (single isomer, unassigned) [Example C24, 3-(3-{3-[(4-methyl-4H-1,2,4-triazol-3-yl)methyl]oxetan-3-yl}phenyl)-7-[(1ξ)-1-(morpholin-4-yl)ethyl]-5-(trifluoromethyl)-1H-pyrazolo[3,4-c]pyridine], the Kd on C-CBL (46-435) was determined as 146 nM; at WT CBL-B (36-427), 16.9 nM. Moreover, the EC50 on C-CBL (setting [1]) was determined as 2970 nM.

In the case of `C[C@H](N[C@H]1C[C@@H](F)C1)c1nc(C(F)(F)F)cc2c(-c3cccc([C@H](c4nncn4C)C4CCC4)c3)n[nH]c12` (single isomer, unassigned) [Example C95], the results for the Kd at C-CBL (46-435) and on WT CBL-B (36-427) were 72.5 nM and 2.3 nM, respectively. In addition, the EC50 on C-CBL (setting [2]) was 230 nM.

Consider `Cn1cnnc1[C@@H](c1cccc(-c2n[nH]c3c(CN[C@H]4CCOC4)nc(C(F)(F)F)cc23)c1)C1CCC1` [Example D1, (3S)—N-{[3-{3-[(R)-cyclobutyl(4-methyl-4H-1,2,4-triazol-3-yl)methyl]phenyl}-5-(trifluoromethyl)-1H-pyrazolo[3,4-c]pyridin-7-yl]methyl}oxolan-3-amine], for which the Kd at C-CBL (46-435) stood at 208 nM; at WT CBL-B (36-427), 3.7 nM. Also, on C-CBL (setting [1]), the EC50 was determined as 1890 nM.

Regarding `Cn1cnnc1CC1(c2cccc(-c3n[nH]c4c(CN5CCCCC5)nc(C(F)(F)F)cc34)c2)COC1` [Example C33, 3-(3-{3-[(4-methyl-4H-1,2,4-triazol-3-yl)methyl]oxetan-3-yl}phenyl)-7-[(piperidin-1-yl)methyl]-5-(trifluoromethyl)-1H-pyrazolo[3,4-c]pyridine], the Kd is 107 nM at C-CBL (46-435) and 6.8 nM on WT CBL-B (36-427). For the same compound, the EC50 at C-CBL (setting [1]) amounted to 1840 nM.

For the compound `C[C@@H](NC1CCC1)c1nc(C(F)(F)F)cc2c(-c3cccc(C4(Cc5nncn5C)COC4)c3)n[nH]c12` [Example C16], the Kd on C-CBL (46-435) came out at 83.4 nM; on WT CBL-B (36-427), 2 nM. Also, the EC50 at C-CBL (setting [1]) amounted to 689 nM.

Regarding `C[C@@H](c1nc(C(F)(F)F)cc2c(-c3cccc(C4(Cc5nncn5C)COC4)c3)n[nH]c12)N1C[C@H](F)[C@@H](F)C1` (single isomer, unassigned) [Example D7], the values for the Kd at C-CBL (46-435) and at WT CBL-B (36-427) were 36 nM and 2.3 nM, respectively. Further, the EC50 on C-CBL (setting [1]) was 380 nM.

With `CC(C)NC(C)c1nc(C(F)(F)F)cc2c(-c3cccc([C@H](c4nncn4C)C4CCC4)c3)n[nH]c12` (single isomer, unassigned) [Example C34], the figures for the Kd at C-CBL (46-435) and on WT CBL-B (36-427) were 172 nM and 5.2 nM, respectively. Besides, the EC50 came out at 892 nM on C-CBL (setting [1]) and 428 nM at C-CBL (setting [2]).

For `CC(c1nc(C(F)(F)F)cc2c(-c3cccc(C4(Cc5nncn5C)COC4)c3)n[nH]c12)N1CCOCC1` (single isomer, unassigned) [Example C23, 3-(3-{3-[(4-methyl-4H-1,2,4-triazol-3-yl)methyl]oxetan-3-yl}phenyl)-7-[(1ξ)-1-(morpholin-4-yl)ethyl]-5-(trifluoromethyl)-1H-pyrazolo[3,4-c]pyridine], the Kd on C-CBL (46-435) was 29.4 nM; on WT CBL-B (36-427), 5.1 nM. Moreover, on C-CBL (setting [1]), the EC50 amounted to 800 nM.

As to `C[C@@H]1CCCN([C@H](C)c2nc(C(F)(F)F)cc3c(-c4cccc(C5(Cc6nncn6C)COC5)c4)n[nH]c23)C1` (single isomer, unassigned) [Example D14], the Kd was 140 nM on C-CBL (46-435) and 11.1 nM on WT CBL-B (36-427). Further, the EC50 on C-CBL (setting [1]) came out at 2010 nM.

Consider `CC(c1nc(C(F)(F)F)cc2c(-c3cccc(C4(Cc5nncn5C)COC4)c3)n[nH]c12)N1CCC[C@H](C)C1` (single isomer, unassigned) [Example C20], for which the Kd on C-CBL (46-435) is 11.3 nM; on WT CBL-B (36-427), 1.2 nM. Further, the EC50 on C-CBL (setting [1]) was found to be 78 nM; at C-CBL (setting [2]), 56 nM.

As to `CC(C)NC(C)c1nc(C(F)(F)F)cc2c(-c3cccc([C@H](c4nncn4C)C4CCC4)c3)n[nH]c12` (single isomer, unassigned) [Example C35], the Kd on C-CBL (46-435) was 54 nM; on WT CBL-B (36-427), 2.8 nM. The EC50 on C-CBL (setting [1]) worked out at 172 nM.

As for `CCNC(C)c1nc(C(F)(F)F)cc2c(-c3cccc([C@H](c4nncn4C)C4CCC4)c3)n[nH]c12` (single isomer, unassigned) [Example C89], the values for the Kd at C-CBL (46-435) and on WT CBL-B (36-427) were 125 nM and 4.1 nM, respectively. Also, the EC50 at C-CBL (setting [2]) amounted to 471 nM.

Turning to `C[C@H](N)c1nc(C(F)(F)F)cc2c(-c3cccc([C@H](c4nncn4C)C4CCC4)c3)n[nH]c12` [Example K12, (1S)-1-[3-{3-[(R)-cyclobutyl(4-methyl-4H-1,2,4-triazol-3-yl)methyl]phenyl}-5-(trifluoromethyl)-1H-pyrazolo[3,4-c]pyridin-7-yl]ethan-1-amine], the values for the Kd at C-CBL (46-435) and on WT CBL-B (36-427) were 209 nM and 4.2 nM, respectively. The EC50 on C-CBL (setting [2]) turned out to be 2080 nM.

Turning to `C[C@@H](NC1CCCC1)c1nc(C(F)(F)F)cc2c(-c3cccc(C4(Cc5nncn5C)COC4)c3)n[nH]c12` (single isomer, unassigned) [Example C15], the Kd on C-CBL (46-435) was determined as 33.9 nM; on WT CBL-B (36-427), 5.6 nM. The EC50 at C-CBL (setting [1]) was found to be 229 nM.
